These results are taken from US20050148673A1, “Prolonged administration of NMDA antagonist and safener drug to alter neuropathic pain condition” (priority 2002, published 2005).

Bounds are passed on as bounds.

Data set [1] relates to patients with post-herpetic neuralgia. To be noted: cited from earlier work; for patients in whom side effects were observed: single intravenous injection, of 8 patients (ketamine 0.15 mg/kg, morphine 0.075 mg/kg), Eide et al 1994.
Data set [2] relates to patients with CRPS-Type 1 (RSD) neuropathic pain. The data set can be described thus: Prolonged continuous intravenous ketamine infusion with clonidine and MgSO4 in U.S. patients with CRPS-Type 1 (RSD). Format: in vivo, human. As for the experimental part:
Roughly 2 hours before ketamine infusion begins, the patient should be given an oral dose of a “safener drug” that can reduce or eliminate the risks of any neurotoxic side effects that might otherwise be caused by continuous prolonged administration of the ketamine. […] As an additional benefit, clonidine (and various other alpha-2 adrenergic agonist drugs) can also help reduce blood pressure. This is useful, when used in conjunction with ketamine, since elevated blood pressure can be a side effect of ketamine, due to certain activities involving the sympathetic nervous system and the release of catecholamines.
In the treatments disclosed herein, clonidine tablets containing 0.1 or 0.2 mg were administered orally, every 8 to 12 hours, with good results. […] The transdermal form of clonidine (i.e., using skin patches) has also been used, with good results.
Beginning roughly 2 hours before the ketamine infusion is commenced (this can be done conveniently at the same time when the first clonidine tablet is taken), the patient should also be administered magnesium, preferably by intravenous infusion of a water-soluble salt, such as magnesium sulfate or chloride. This can be done by dissolving 2 grams of MgSO4 in 250 milliliters of 5% dextrose in water (abbreviated as D5W) and infusing the liquid into the patient over a period of about 2 hours.
A second infusion of 2 grams of MgSO4 should be administered roughly 24 hours later. This can be repeated each day, if desired, if the patient has not yet achieved complete cessation of the chronic pain; however, in the treatments completed to date, it has never been provided more than 3 times.
As soon as the initial magnesium infusion (which takes about 2 hours) has been completed, the patient is ready for the ketamine infusion to begin. In the treatments described herein, since these were done without being able to rapidly determine ketamine concentrations in blood, each patient was individually “titered”, by testing a series of gradually increasing dosages until a “maximum tolerated dosage” was reached and determined.
This typically was done by starting each patient at an initial dosage of 10 mg per hour, and then evaluating the patient every 2 hours after that, to see whether the dosage should be increased by another 5 or 10 mg/hr. When a patient began showing or reporting substantial CNS effects (such as feeling drunk, slurring of speech, semi-hallucinatory thoughts or visions, etc.), it was presumed that the maximum tolerated dosage had been reached or slightly passed, and the dosage was decreased slightly (such as by 5 or 10 mg/hr, depending on how well the reported pain levels were decreasing).
Four other patients who had suffering from CRPS type 1 for at least two years were subsequently treated in the U.S. Because of patient privacy concerns, the details of their condition cannot be disclosed herein. Typical treatments for these patients commenced with 2 grams of MgSO4 (infused in 5% dextrose in water, or D5W) and 1 or 2 tablets of 0.1 mg clonidine, two or three times per day as tolerated, commencing at least an hour prior to the first ketamine infusion. Throughout the treatment, patients continued to receive 1 or 2 tablets of clonidine 2 to 3 times per day, as tolerated, and a second magnesium infusion was performed in some patients at 24 hr.

For data set [3], the system named is patients with post-herpetic neuralgia (shingles). The data set can be described thus: Ketamine treatment of patients with post-herpetic neuralgia (shingles). It is filed as in vivo, human. As for the experimental part:
Several patients were also treated who suffered from post-herpetic neuralgia (commonly known as shingles).

Data set [4] in a line: Ketamine and norketamine concentrations in blood plasma during infusion. It is filed as in vivo, human. How it is done:
Blood samples were taken from each patient during his or her infusion regimen, and those samples were shipped to an analytical laboratory (National Medical Services Company, in Willow Grove, Pa.) to have their ketamine concentrations analyzed. […] In view of those data, it is believed that blood plasma concentrations of at least about 200 ng/ml (and preferably at least about 250 to about 350 ng/ml) should be regarded as target levels for effective treatments.

Data set [5] deals with patients with chronic neuropathic pain. The data set can be described thus: Prolonged infusions of ketamine without any safener drug or magnesium, patients treated in Australia. It is filed as in vivo, human. An excerpt: About 30 patients have been treated during the span of 1997 through 2002, in Australia, by one of the Inventors herein (Correll), using prolonged infusions of ketamine without any safener drug or magnesium. […] Those patients have been described in more detail in Correll et al 2004, and more current information on the duration of remission are provided in FIGS. 1 and 2 of that report. That report is not prior art against this invention.

For data set [6], the system named is NMDA receptors. To be noted: cited from earlier work.

For the compound `CNC1(c2ccccc2Cl)CCCCC1=O` (racemic) [ketamine], in data set [1], the “patients in whom side effects were observed” value is reported as 8 patients. The tolerability entry in data set [1] (subcutaneous administration over a continuous span of 7 days, 5 patients, Eide et al 1995) is listed as “associated with intolerable side effects”. Also, in data set [2] (FIG. 1 patient, baseline 8, after 24 hours of ketamine infusion (plateau)), the reported pain level entry is recorded as “about 1.3”. The “duration of apparently complete relief” value in data set [2] (FIG. 1 patient, one of four further CRPS type 1 patients) is recorded as “roughly six”. In addition, in data set [2] (FIG. 1 patient, within about 3 hours after second MgSO4 infusion commencing at 24 hours, ketamine continued), the reported pain level entry is “zero”. Further, in data set [2] (first patient treated in the U.S.), the “duration of apparently complete remission” value is reported as “about 18 months”. The pain relief outcome in data set [2] (one of four further CRPS type 1 patients, appears permanent as of filing date) is recorded as “apparently complete relief”. For the same compound, the “level to which pain returned, relative to pretreatment level” value in data set [2] (one of two patients with low ketamine plasma concentrations) was “roughly 50%”. In data set [2] (other of two patients with low ketamine plasma concentrations), the “level to which pain returned” value is reported as “roughly the same starting level that existed prior to treatment”. For the same compound, in data set [3], the “outcome in certain other patients” value was “transitory and partial benefits”; the “outcome in one patient” value was “essentially complete remission”. Moreover, the “blood plasma concentration of ketamine in the two patients without complete and long-lasting relief” value in data set [4] (did not reach or even closely approach this level) is below 0.3 µg/mL. Moreover, the “blood plasma concentration of ketamine that appeared to provide the best results” value in data set [4] (plasma, during infusion) is given as “greater than 250 ng/ml”. In addition, the overall result in data set [5] (ketamine alone, about 30 patients) is “generally good results”. In data set [5] (of about 30 patients treated 1997 through 2002, ketamine alone), the “patients believed to remain generally pain-free or in partial remission” value is “more than 25 patients”.

As to `CN1CC[C@]23c4c5ccc(O)c4O[C@H]2[C@@H](O)C=C[C@H]3[C@H]1C5` [morphine], the “patients in whom side effects were observed” value in data set [1] is 6 patients.

On to `NC1(c2ccccc2Cl)CCCCC1=O` (stereo not shown) [norketamine], for which, in data set [6], the “effectiveness relative to ketamine in reducing pain signals” value is on record as “about 25%” and the “effectiveness relative to ketamine in suppressing activity at NMDA receptors” value is reported as “about 25%”. Besides, the “level of norketamine in blood” value in data set [4] (one patient with return of pain) is recorded as “high level”.
